These results are taken from patent US8192962B2, “Processes for detecting toxic substances” (Daikin Industries, Ltd., priority 2001, dated 2012).

In the experiment the test system is Mitochondria-located protein genes. Put plainly: DNA chip mRNA expression in yeast, mitochondria-located protein genes (Table 2). The format is cell-based, Saccharomyces cerevisiae S288C. Particulars: cells incubated two hours with the chemical substance. An outline of the steps: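 In this screen, yeast in logarithmic growth are challenged for two hours with a toxic substance at a non-lethal inhibitory concentration. Their mRNA, converted to Cy3- or Cy5-labeled cDNA, hybridizes at 65° C. to a chip spanning every yeast gene, and expression is expressed as a ratio to untreated cells.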

In the case of `C[S+](C)[O-]` [(15), dimethylsulfoxide], the “The level of expressed mRNA in the presence of chemical substance/The level of expressed mRNA in the absence of chemical substance” value (yeast gene YBR029C) is recorded as 3.5; the “The level of expressed mRNA in the presence of chemical substance/The level of expressed mRNA in the absence of chemical substance” value (yeast gene YBR291C) was found to be 0.5; the “The level of expressed mRNA in the presence of chemical substance/The level of expressed mRNA in the absence of chemical substance” value (yeast gene YDR529C) was found to be 0.5; the “The level of expressed mRNA in the presence of chemical substance/The level of expressed mRNA in the absence of chemical substance” value (yeast gene YEL039C) is 0.4; the “The level of expressed mRNA in the presence of chemical substance/The level of expressed mRNA in the absence of chemical substance” value (yeast gene YGR029W) is 0.4; the “The level of expressed mRNA in the presence of chemical substance/The level of expressed mRNA in the absence of chemical substance” value (yeast gene YGR062C) was 0.5. The “The level of expressed mRNA in the presence of chemical substance/The level of expressed mRNA in the absence of chemical substance” value runs as follows: (yeast gene YGR076C) 0.5; (yeast gene YIL022W) 2.9; (yeast gene YIL094C) 0.5; (yeast gene YJL166W) 0.5; (yeast gene YKL085W) 0.5; (yeast gene YKL170W) 0.8. The “The level of expressed mRNA in the presence of chemical substance/The level of expressed mRNA in the absence of chemical substance” value (yeast gene YKL194C) was determined as 0.8; the “The level of expressed mRNA in the presence of chemical substance/The level of expressed mRNA in the absence of chemical substance” value (yeast gene YKR052C) is reported as 0.5; the “The level of expressed mRNA in the presence of chemical substance/The level of expressed mRNA in the absence of chemical substance” value (yeast gene YLL041C) is given as 0.4; the “The level of expressed mRNA in the presence of chemical substance/The level of expressed mRNA in the absence of chemical substance” value (yeast gene YLR295C) is listed as 0.5; the “The level of expressed mRNA in the presence of chemical substance/The level of expressed mRNA in the absence of chemical substance” value (yeast gene YLR395C) is 0.4; the “The level of expressed mRNA in the presence of chemical substance/The level of expressed mRNA in the absence of chemical substance” value (yeast gene YML110C) was 1.3. Besides, the “The level of expressed mRNA in the presence of chemical substance/The level of expressed mRNA in the absence of chemical substance” value came to 0.5 (yeast gene YML120C), 0.9 (yeast gene YOR037W) and 2.5 (yeast gene YOR374W).
